Experiment [1] has as its system coagulant serine proteases. The experiment is described as follows: initial screening, coagulant activity of snake venoms. The experiment is classed as biochemical, Bothrops jararacussu, B. moojeni, B. alternatus. The settings on record: first screening assay, FIG. 2. As to the method:
(§1) This screening was for the venoms of the Bothrops jararacussu, B. moojeni, B. alternatus and B. jararacussu BjussuMP-I snakes to determine promising compounds.
(§2) Aliquots of plasma (0.2 mL) were incubated with venom or venom/inhibitor (50 μL) in varying proportions (m/m) during a period of 30 minutes at 37° C. and the coagulation time was verified. The control tubes included plasma incubated with phosphate buffered saline solution (PBS)+calcium or dimethyl sulphoxide or only the compound.

Experiment [2] deals with venom of B. jararacussu (BjussuSP-I). The experiment is described as follows: coagulant activity, B. jararacussu venom. The settings on record: FIG. 3C. Format: biochemical. Here is the method: as §2
Experiment [3] has as its system snake venoms and isolated serine protease. The experiment in a line: coagulant activity in human plasma (FIG. 3C). Format: biochemical, Bothrops and Crotalus. To be noted: induced by snake venoms and isolated serine protease. Here is the method: as §2
In experiment [4] the test system is venom of C. d. terrificus (gyroxin). The experiment in a line: coagulant activity, C. d. terrificus venom. To be noted: FIG. 3C. The experiment is classed as biochemical. Here is the method:
as §2

Experiment [5] concerns venom of B. jararacussu, BjussuSP-I and BjussuMP-I. The experiment in a line: fibrinogenolytic activity on bovine fibrinogen, SDS-PAGE (FIG. 4A). To be noted: enzymes incubated with inhibitor 30 minutes at 37° C., 1:10 by mass. The experiment is classed as biochemical. Here is the method: Lanes: 1—Fibrinogen+venom of B. jararacussu (4 μg)+2 (40 μg); 2—Fibrinogen+enzyme BjussuSP-I (2 μg)+2 (20 μg); 3—Fibrinogen+BjussuMP-I (2 μg)+2 (20 μg); 4—Fibrinogen control. The enzymes were incubated together with 2 for 30 minutes at 37° C. The results are expressed by the mean±S.D (n=3). (B): Interaction between the venom of the B. jararacussu snake and 2. Samples containing venom/toxin (20 μg) and the […] (600 μg) were incubated for 30 minutes at 37° C. at a ratio of 1:30 (w/w). Lanes: 1—BthTX-I+2; 2—BthTX-II+2; 3—venom of B. jararacussu+2; 4—only BthTX-I; 5—only BthTX-II; 6—only the venom of B. jararacussu.

The subject of experiment [6] is venom of Bothrops and the isolated metalloprotease. The experiment in a line: haemorrhage induced by Bothrops venoms and isolated metalloprotease (FIG. 3A). Format: in vivo. The settings on record: venom of Bothrops and Crotalus snakes and isolated metalloprotease. Here is the method: FIG. 3A: Effect of compound 2 on the haemorrhage induced by the venom of Bothrops and the isolated metalloprotease. FIG. 3B: Effect of compound 2 on the proteolytic activity induced by the venom of Bothrops and the isolated metalloprotease. FIG. 3C: Effect of the coagulant activity of compound 2 induced by the venoms of Bothrops and Crotalus and the isolated serine protease. The results are expressed by the mean±standard deviation (SD) (n=6).
Therefore, further assays were performed to determine the efficiency of compound 2 for various other activities. FIG. 3A presents the effects of 2 on haemorrhages induced by the different venoms of the Bothrops genus snakes and an isolated metalloprotease.

The test system of experiment [7] is venoms and isolated PLA2s. The experiment in a line: myotoxic activity in mice (plasma CK). The settings on record: induced by venoms of B. jararacussu and C. durissus terrificus and isolated PLA2s. The experiment is classed as in vivo.
Experiment [8] concerns venoms and isolated PLA2s. The experiment in a line: phospholipase A2 activity (indirect haemolytic). Format: biochemical. The settings on record: induced by venoms of B. jararacussu and C. durissus terrificus and isolated PLA2s. Here is the method: (§3) Indirect haemolytic activity is tested using agarose-erythrocyte-egg yolk gel as a substrate. The compounds are tested following incubation with the pure venoms or PLA2 in varying ratios (m/m).

For experiment [9], the target named is Class I metalloprotease neuwiedase (Bothrops pauloensis, UniProt Q9I9R4). Format: biochemical, B. neuwiedi.
Class I metalloprotease neuwiedase, sequence (Q9I9R4 whole entry, looked up): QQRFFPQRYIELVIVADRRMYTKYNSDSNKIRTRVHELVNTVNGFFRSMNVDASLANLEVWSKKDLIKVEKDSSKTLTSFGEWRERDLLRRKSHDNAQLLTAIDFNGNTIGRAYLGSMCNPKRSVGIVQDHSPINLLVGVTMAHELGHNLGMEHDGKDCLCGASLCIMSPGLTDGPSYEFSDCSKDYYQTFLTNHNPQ
The subject of experiment [10] is venoms and isolated PLA2s. The experiment in a line: oedema inducing activity in mice. The experiment is classed as in vivo. To be noted: induced by venoms of B. jararacussu and C. durissus terrificus and isolated PLA2s. Here is the method:
The oedemas are induced by the direct injection of venom (20 μg) and purified proteins (20 μg) into the right leg of male Swiss mice (18-22 g). Inhibition activity is verified incubating the venom or isolated protein with the inhibitor in varying concentrations (m/m). The control groups are injected with 50 μL of phosphate buffered saline solution (PBS, pH=7.2) alone, dimethyl sulphoxide (DMSO) or the compounds. Oedema progression is assessed through measurement of the […] using a pachymeter (Mitutoyo, Japan) at intervals of 30 and 60 minute after injection.

For experiment [11], the system named is snake venoms and isolated metalloprotease. The experiment is described as follows: proteolytic activity in casein (FIG. 3B). Format: biochemical, Bothrops. The settings on record: induced by snake venoms and isolated metalloprotease.
Experiment [12] has as its system haemorrhagic metalloprotease of the venoms. The experiment in a line: initial screening, haemorrhagic metalloprotease of the venoms. Set-up: species or system Bothrops jararacussu, B. moojeni, B. alternatus. To be noted: first screening assay, FIG. 2.
From the text: as §1

In experiment [13] the test system is basic Asp49 PLA2s (BthTX-II and CB). The experiment in a line: phospholipase A2 activity, basic Asp49 PLA2s. Format: biochemical, B. jararacussu and C. d. terrificus. The settings on record: compared with pure venoms and acid isoform Asp49 BthA-1-PLA2, FIG. 5C. Here is the method: as §3

Turning to `O=C(O)c1cn(C2CC2)c2cc(N3CCNCC3)c(F)cc2c1=O` [Compound 13, 1-ciclopropyl-6-fluoro-1,4-dihydro-4-oxo-7-(1-piperazinyl)-3-quinolinecarboxylic acid, reference compound], the “inhibition of coagulant serine proteases” value in [1] was “partial inhibition”.
The same measure, in the same setting: in the case of `CCOCc1cc(OCC)c2cc(OC)ccc2n1` [Compound 11, 4-ethoxy-2-ethoxymethyl-6-methoxyquinoline] it was “partial inhibition”.
Take `COc1ccc2[nH]c(CO)cc(=O)c2c1` [Compound 2, 2-hydroxymethyl-6-methoxy-1,4-dihydro-4-quinolinone]: the action on coagulation entry in experiment [2] and in [4] was “powerful coagulation action” in each case. Besides, the “inhibition of coagulant activity in human plasma” value in experiment [3] was “significantly inhibits”. For the same molecule, the “inhibition of fibrinogenolytic activity” value in experiment [5] is “inhibition”. In addition, in experiment [6], the “effect on haemorrhages induced by venom” value is “inhibits”. For the same molecule, in experiment [7], the effect on myotoxicity entry is “partially reduced”. Besides, in experiment [8], the “effect on activity for phospholipase” value is “partially reduced”. Besides, the “inhibition of proteolytic activity” value in experiment [9] was “approximately 67%”. For the same molecule, the effect on oedema result in experiment [10] is recorded as “partially reduced”. Moreover, the “inhibition of proteolytic activity on casein” value in experiment [11] is on record as “significantly inhibits”. The “inhibition of coagulant serine proteases” value in experiment [1] was “partial inhibition”. Also, in [12], the “inhibition of the haemorrhagic metalloprotease of the venoms” value is listed as “potential of inhibiting”. Further, the “neutralising PLA2 activity” value in experiment [13] is given as “more efficient”.
Take `O=c1cc(CO)[nH]c2ccccc12` [Compound 1, 2-hydroxymethyl-1,4-dihydro-4-quinolinone]: the “inhibition of coagulant serine proteases” value in experiment [1] is recorded as “partial inhibition”.
Turning to `CCOc1cc(CO)nc2ccc(OC)cc12` [Compound 10, 4-ethoxy-2-hydroxymethyl-6-methoxyquinoline], the “inhibition of coagulant serine proteases” value in experiment [1] was “partial inhibition”.
